Assays:
Format in all cases: in vivo
[1] = test system: Eiysiphe graminis f. sp. tritici; test: Test A: wheat powdery mildew, preventive spray on wheat seedlings; conditions: for Test A disease control rating: wheat powdery mildew, 100 = 100% disease control, 0 = no control relative to controls, unmarked entries (standard test concentration); for Test A disease control rating (100 = 100% disease control, 0 = no disease control): wheat seedlings sprayed to run-off, inoculated the following day, rating relative to controls, unmarked compounds (standard test rate)
Method in brief: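 Preventive test: seedlings inoculated with powdery mildew spores one day after run-off spraying of a suspension. Ratings after 7 days in a 20° C growth chamber express percent disease control versus controls.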

Puccinia recondita = test: Test B: wheat leaf rust, preventive spray on wheat seedlings; conditions: for Test B disease control rating: wheat leaf rust, 100 = 100% disease control, 0 = no control, unmarked entries (standard test concentration); for Test B disease control rating (100 = 100% disease control, 0 = no disease control): wheat seedlings sprayed to run-off, inoculated the following day, rating relative to controls, unmarked compounds (standard test rate)
Method in brief: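 Preventive test: P. recondita spores were applied one day after a run-off spray of compound suspension on wheat seedlings. Plants had 24 h at 20 °C in saturated air plus 6 days in a 20 °C growth chamber. Scoring is % disease control (100 = full) relative to controls.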

Pyricularia oryzae = conditions: for Test C disease control rating: rice blast, 100 = 100% disease control, 0 = no control, unmarked entries (standard test concentration); for Test C disease control rating (100 = 100% disease control, 0 = no disease control): rice seedlings sprayed to run-off, inoculated the following day, rating relative to controls, unmarked compounds (standard test rate)
Phytophthora infestans = conditions: for Test D disease control rating: tomato late blight, 100 = 100% disease control, 0 = no control, unmarked entries (standard test concentration); for Test D disease control rating (100 = 100% disease control, 0 = no disease control): tomato seedlings sprayed to run-off, inoculated the following day, rating relative to controls, unmarked compounds (standard test rate)
Botrytis cinerea = test: Test E: gray mold, preventive spray on cucumber seedlings; conditions: for Test E disease control rating: gray mold on cucumber, 100 = 100% disease control, 0 = no control, unmarked entries (standard test concentration); for Test E disease control rating (100 = 100% disease control, 0 = no disease control): cucumber seedlings sprayed to run-off, inoculated the following day, rating relative to controls, unmarked compounds (standard test rate)
Method in brief: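 Preventive spray on cucumber seedlings used a suspension (3% acetone, 250 ppm Trem 014), applied to run-off one day before inoculation with Botrytis cinerea spores. Plants were held 48 h at 20° C in saturated air, then 5 days at 20° C. Percent disease control was scored relative to untreated plants.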

SMILES: Cc1cccc(OCC(C)NC(=O)C(C#N)C(C)(C)C)c1 (mixture of isomers) [compound 176]
- Test A disease control rating [1]: 77%
- Test B disease control rating (Puccinia recondita): 0%
- Test C disease control rating (Pyricularia oryzae): 94%
- Test D disease control rating (Phytophthora infestans): 56%
- Test E disease control rating (Botrytis cinerea): 6%

SMILES: CCc1cccc(OCC(C)NC(=O)C(C#N)C(C)(C)C)c1 (mixture of isomers) [compound 177]
- Test A disease control rating [1]: 62%
- Test B disease control rating (Puccinia recondita): 0%
- Test C disease control rating (Pyricularia oryzae): 94%
- Test D disease control rating (Phytophthora infestans): 35%
- Test E disease control rating (Botrytis cinerea): 6%

SMILES: C=CCc1cc(C)ccc1OCC(C)NC(=O)C(C#N)C(C)(C)C (mixture of isomers) [compound 185]
- Test A disease control rating [1]: 0%
- Test B disease control rating (Puccinia recondita): 28%
- Test C disease control rating (Pyricularia oryzae): 86%
- Test D disease control rating (Phytophthora infestans): 9%
- Test E disease control rating (Botrytis cinerea): 45%

SMILES: CC(COc1c(F)ccc(F)c1F)NC(=O)C(C#N)C(C)(C)C (mixture of isomers) [compound 186]
- Test A disease control rating [1]: 0%
- Test B disease control rating (Puccinia recondita): 0%
- Test C disease control rating (Pyricularia oryzae): 100%
- Test D disease control rating (Phytophthora infestans): 0%
- Test E disease control rating (Botrytis cinerea): 45%

SMILES: C#CC(C)(C)C(C#N)C(=O)NC(C)COc1cc(F)ccc1Cl (mixture of isomers) [compound 193]
- Test A disease control rating [1]: 0%
- Test B disease control rating (Puccinia recondita): 0%
- Test C disease control rating (Pyricularia oryzae): 100%
- Test D disease control rating (Phytophthora infestans): 0%
- Test E disease control rating (Botrytis cinerea): 55%

SMILES: CC(COc1cc(F)ccc1Cl)NC(=O)C(C#N)C(C)C(C)(C)C (mixture of isomers) [compound 194]
- Test A disease control rating [1]: 0%
- Test B disease control rating (Puccinia recondita): 0%
- Test C disease control rating (Pyricularia oryzae): 100%
- Test D disease control rating (Phytophthora infestans): 0%
- Test E disease control rating (Botrytis cinerea): 0%

SMILES: CC(COc1ccccc1OC(F)(F)C(F)F)NC(=O)C(C#N)C(C)(C)C (mixture of isomers) [compound 201]
- Test A disease control rating [1]: 90%
- Test B disease control rating (Puccinia recondita): 0%
- Test C disease control rating (Pyricularia oryzae): 53%
- Test D disease control rating (Phytophthora infestans): 46%
- Test E disease control rating (Botrytis cinerea): 0%

SMILES: CC(COc1ccccc1SC(F)(F)C(F)F)NC(=O)C(C#N)C(C)(C)C (mixture of isomers) [compound 202]
- Test A disease control rating [1]: 0%
- Test B disease control rating (Puccinia recondita): 0%
- Test C disease control rating (Pyricularia oryzae): 53%
- Test D disease control rating (Phytophthora infestans): 0%
- Test E disease control rating (Botrytis cinerea): 0%

SMILES: CC(COc1c(F)cccc1C#N)NC(=O)C(C#N)C(C)(C)C (mixture of isomers) [compound 203]
- Test A disease control rating [1]: 0%
- Test B disease control rating (Puccinia recondita): 28%
- Test C disease control rating (Pyricularia oryzae): 91%
- Test D disease control rating (Phytophthora infestans): 0%
- Test E disease control rating (Botrytis cinerea): 0%

SMILES: C=CCc1cccc(C#N)c1OCC(C)NC(=O)C(C#N)C(C)(C)C (mixture of isomers) [compound 204]
- Test A disease control rating [1]: 0%
- Test B disease control rating (Puccinia recondita): 0%
- Test C disease control rating (Pyricularia oryzae): 74%
- Test D disease control rating (Phytophthora infestans): 0%
- Test E disease control rating (Botrytis cinerea): 0%

SMILES: CCCc1cccc(C#N)c1OCC(C)NC(=O)C(C#N)C(C)(C)C (mixture of isomers) [compound 205]
- Test A disease control rating [1]: 0%
- Test B disease control rating (Puccinia recondita): 68%
- Test C disease control rating (Pyricularia oryzae): 74%
- Test D disease control rating (Phytophthora infestans): 0%
- Test E disease control rating (Botrytis cinerea): 0%

SMILES: CC(COc1c(C#N)cccc1C(F)F)NC(=O)C(C#N)C(C)(C)C (mixture of isomers) [compound 206]
- Test A disease control rating [1]: 0%
- Test B disease control rating (Puccinia recondita): 0%
- Test C disease control rating (Pyricularia oryzae): 74%
- Test D disease control rating (Phytophthora infestans): 0%
- Test E disease control rating (Botrytis cinerea): 0%

SMILES: CC(COc1cc(F)c(F)cc1C#N)NC(=O)C(C#N)C(C)(C)C (mixture of isomers) [compound 207]
- Test A disease control rating [1]: 0%
- Test B disease control rating (Puccinia recondita): 0%
- Test C disease control rating (Pyricularia oryzae): 0%
- Test D disease control rating (Phytophthora infestans): 0%
- Test E disease control rating (Botrytis cinerea): 0%

SMILES: CC(COc1c(F)ccc(F)c1C#N)NC(=O)C(C#N)C(C)(C)C (mixture of isomers) [compound 208]
- Test A disease control rating [1]: 0%
- Test B disease control rating (Puccinia recondita): 28%
- Test C disease control rating (Pyricularia oryzae): 94%
- Test D disease control rating (Phytophthora infestans): 45%
- Test E disease control rating (Botrytis cinerea): 0%

SMILES: Cc1cccc(C#N)c1OCC(C)NC(=O)C(C#N)C(C)(C)C (mixture of isomers) [compound 209]
- Test A disease control rating [1]: 0%
- Test B disease control rating (Puccinia recondita): 0%
- Test C disease control rating (Pyricularia oryzae): 86%
- Test D disease control rating (Phytophthora infestans): 0%
- Test E disease control rating (Botrytis cinerea): 0%

SMILES: CC(COc1c(Cl)cccc1C#N)NC(=O)C(C#N)C(C)(C)C (mixture of isomers) [compound 210]
- Test A disease control rating [1]: 0%
- Test B disease control rating (Puccinia recondita): 0%
- Test C disease control rating (Pyricularia oryzae): 91%
- Test D disease control rating (Phytophthora infestans): 0%
- Test E disease control rating (Botrytis cinerea): 0%

SMILES: C#CC(C)(C)C(C#N)C(=O)NC(C)COc1cc(F)ccc1F (mixture of isomers) [compound 211]
- Test A disease control rating [1]: 63%
- Test B disease control rating (Puccinia recondita): 0%
- Test C disease control rating (Pyricularia oryzae): 100%
- Test D disease control rating (Phytophthora infestans): 76%
- Test E disease control rating (Botrytis cinerea): 0%

SMILES: C#CC(C)(C)C(C#N)C(=O)NC(C)COc1cc(Cl)ccc1Cl (mixture of isomers) [compound 212]
- Test A disease control rating [1]: 0%
- Test B disease control rating (Puccinia recondita): 0%
- Test C disease control rating (Pyricularia oryzae): 100%
- Test D disease control rating (Phytophthora infestans): 23%
- Test E disease control rating (Botrytis cinerea): 0%

SMILES: C#CC(C)(C)C(C#N)C(=O)NC(C)COc1cc(C)ccc1Cl (mixture of isomers) [compound 213]
- Test A disease control rating [1]: 63%
- Test B disease control rating (Puccinia recondita): 0%
- Test C disease control rating (Pyricularia oryzae): 99%
- Test D disease control rating (Phytophthora infestans): 62%
- Test E disease control rating (Botrytis cinerea): 0%

SMILES: C=CC(C)(C)C(C#N)C(=O)NC(C)COc1cc(F)ccc1F (mixture of isomers) [compound 214]
- Test A disease control rating [1]: 0%
- Test B disease control rating (Puccinia recondita): 0%
- Test C disease control rating (Pyricularia oryzae): 100%
- Test D disease control rating (Phytophthora infestans): 23%
- Test E disease control rating (Botrytis cinerea): 0%

SMILES: C#Cc1ccccc1OCC(C)NC(=O)C(C#N)C(C)(C)C (mixture of isomers) [compound 216]
- Test A disease control rating (100 = 100% disease control, 0 = no disease control) [1]: 0%
- Test B disease control rating (100 = 100% disease control, 0 = no disease control) (Puccinia recondita): 0%
- Test C disease control rating (100 = 100% disease control, 0 = no disease control) (Pyricularia oryzae): 99%
- Test D disease control rating (100 = 100% disease control, 0 = no disease control) (Phytophthora infestans): 9%
- Test E disease control rating (100 = 100% disease control, 0 = no disease control) (Botrytis cinerea): 45%

SMILES: C=C(F)C(C)(C)C(C#N)C(=O)NC(C)COc1cc(F)ccc1F (mixture of isomers) [compound 217]
- Test A disease control rating (100 = 100% disease control, 0 = no disease control) [1]: 0%
- Test B disease control rating (100 = 100% disease control, 0 = no disease control) (Puccinia recondita): 0%
- Test C disease control rating (100 = 100% disease control, 0 = no disease control) (Pyricularia oryzae): 99%
- Test D disease control rating (100 = 100% disease control, 0 = no disease control) (Phytophthora infestans): 0%
- Test E disease control rating (100 = 100% disease control, 0 = no disease control) (Botrytis cinerea): 0%

SMILES: C=CC(C)(CF)C(C#N)C(=O)NC(C)COc1cc(F)ccc1F (mixture of isomers) [compound 218]
- Test A disease control rating (100 = 100% disease control, 0 = no disease control) [1]: 86%
- Test B disease control rating (100 = 100% disease control, 0 = no disease control) (Puccinia recondita): 68%
- Test C disease control rating (100 = 100% disease control, 0 = no disease control) (Pyricularia oryzae): 100%
- Test D disease control rating (100 = 100% disease control, 0 = no disease control) (Phytophthora infestans): 17%
- Test E disease control rating (100 = 100% disease control, 0 = no disease control) (Botrytis cinerea): 0%

SMILES: C=CC(C)(CF)C(C#N)C(=O)NC(C)COc1cc(Cl)ccc1Cl (mixture of isomers) [compound 219]
- Test A disease control rating (100 = 100% disease control, 0 = no disease control) [1]: 86%
- Test B disease control rating (100 = 100% disease control, 0 = no disease control) (Puccinia recondita): 86%
- Test C disease control rating (100 = 100% disease control, 0 = no disease control) (Pyricularia oryzae): 99%
- Test D disease control rating (100 = 100% disease control, 0 = no disease control) (Phytophthora infestans): 96%
- Test E disease control rating (100 = 100% disease control, 0 = no disease control) (Botrytis cinerea): 0%

SMILES: C=CC(C)(CF)C(C#N)C(=O)NC(C)COc1cc(F)ccc1Cl (mixture of isomers) [compound 220]
- Test A disease control rating (100 = 100% disease control, 0 = no disease control) [1]: 0%
- Test B disease control rating (100 = 100% disease control, 0 = no disease control) (Puccinia recondita): 0%
- Test C disease control rating (100 = 100% disease control, 0 = no disease control) (Pyricularia oryzae): 100%
- Test D disease control rating (100 = 100% disease control, 0 = no disease control) (Phytophthora infestans): 85%
- Test E disease control rating (100 = 100% disease control, 0 = no disease control) (Botrytis cinerea): 0%

SMILES: CC(COc1cc(F)ccc1Cl)NC(=O)C(C#N)C(C)(C)C=CF (mixture of isomers) [compound 222]
- Test A disease control rating (100 = 100% disease control, 0 = no disease control) [1]: 62%
- Test B disease control rating (100 = 100% disease control, 0 = no disease control) (Puccinia recondita): 28%
- Test C disease control rating (100 = 100% disease control, 0 = no disease control) (Pyricularia oryzae): 100%
- Test D disease control rating (100 = 100% disease control, 0 = no disease control) (Phytophthora infestans): 41%
- Test E disease control rating (100 = 100% disease control, 0 = no disease control) (Botrytis cinerea): 0%

SMILES: C=C(F)C(C)(C)C(C#N)C(=O)NC(C)COc1cc(F)ccc1Cl (mixture of isomers) [compound 223]
- Test A disease control rating (100 = 100% disease control, 0 = no disease control) [1]: 62%
- Test B disease control rating (100 = 100% disease control, 0 = no disease control) (Puccinia recondita): 28%
- Test C disease control rating (100 = 100% disease control, 0 = no disease control) (Pyricularia oryzae): 100%
- Test D disease control rating (100 = 100% disease control, 0 = no disease control) (Phytophthora infestans): 41%
- Test E disease control rating (100 = 100% disease control, 0 = no disease control) (Botrytis cinerea): 0%
